Assay results published in PMC6201930 (PLoS ONE, 2018).
Where “and” joins values, the source holds several entries; their conditions need not be identical. Equal values may be shown once. Read-outs that look alike come from different tables or passages of the source.

Experiments:
[1] = Neuromast toxicity assay (DASPEI staining); conditions: zebrafish, zebrafish embryos 5 dpf, neuromasts (hair cells), other: embryos exposed to the drug in 24-well plates, zebrafish embryos 5 dpf
Method: (§3) All neuromast cytotoxicity assays were done at Biobide–BBD Biophenix SL (Gipuzkoa, Spain). […] Compounds were tested at 5 doses. After 24 hours of exposure embryos were incubated in DASPEI (2-(4-(dimethylamino)styryl) -N-Ethylpyridinium Iodide) for neuromast staining. Images of each embryo were taken and neuromasts counted. A compound was classified as ototoxic when the number of neuromasts in the treated group was less than that in the untreated control group (One Way ANOVA, multiple comparisons vs. vehicle).

[2] = system: zebrafish neuromasts (hair cells); assay: Neuromast toxicity assay (DASPEI staining); conditions: read-out: Neuromast CC50; individual determinations (S1 File)
Method: as §3

[3] = system: activated human peripheral blood mononuclear cells (PBMCs); assay: Cytotoxicity in stimulated PBMCs (CellTitre-Glo ATP); conditions: for CC50: read-out: Stimulated PBMC CC50, individual determinations (S1 File)
Excerpt: (§1) When considering compounds for potential readthrough therapy it is important to monitor cellular and animal safety. In order to determine the most promising compounds to further evaluate in in vivo safety, we measured cytotoxicity in two different cell types. We used activated human peripheral blood mononuclear cells (PBMCs) (Table 2 and Fig 2D and 2E). PBMCs are a primary cell that when activated with phytohaemagglutinin (PHA) expand quickly and are commonly used as an in vitro surrogate for rapidly growing cells in the human body to evaluate cytotoxicity. Prior to advancing compounds into human studies, safety evaluation in rodents is performed. As an in vitro surrogate for rodent toxicity, we used primary mouse myoblasts.
(§2) Frozen human Peripheral Blood Mononuclear Cells (PBMCs) were obtained from […] (Alameda, CA, Cat# PB003F) from a single donor. […] Plates were incubated at 37°C with 5% CO2 for 4 hours prior to compound treatment. Compounds were serially diluted and added to the plates. Plates were incubated at 37°C, 5% CO2 incubator, for 72 hours prior to determinations of ATP levels. Cell viability was determined using a chemiluminescent assay to monitor adenosine triphosphate (ATP) levels in live cells (CellTitre-Glo; CTG; Promega, Cat#G7571). Methods were performed per the manufacturer’s instructions.

[4] = as above; conditions: human
Excerpt: as §1, §2

[5] = system: fLuc mRNA harboring a UGA nonsense mutation at codon 190 (fLuc-190-NS); type: biochemical, rabbit
Excerpt: ThefLuc-190-NS assay is an in vitro rabbit reticulocyte lysate translation of an fLuc mRNA harboring a UGA nonsense mutation at codon 190 (fLuc-190-NS). It is believed that positively charged aminoglycosides are poorly taken up by cells, and we used this cell-free readthrough assay to eliminate the potential variable of cell uptake when measuring readthrough potency. […] Readthrough protein was detected using a HA-HIS MSD immunoassay described previously.
This cell-free translation assay used synthetic LUC mRNAs harboring an EMCV IRES and LUC codon 190-UGA premature stop codon prepared using the MegaScript in vitro transcription kit (Ambion). Translation reactions were done with the Rabbit Reticulocyte Lysate System (Promega) with 100 ng RNA and increasing concentrations of aminoglycosides. The amount of luminescence produced was determined after approximately 4 hours using a Viewlux CCD imager (Perkin-Elmer). Fold suppression over background was calculated as (aminoglycoside light units/PBS light units).

[6] = system: tGFP-CFTR542X-HA-HIS construct (codon 542 UGA) in 293H cells; assay: tGFP-542X readthrough assay (HA-HIS MSD immunoassay); type: cell-based, human
[7] = system: primary mouse myoblasts; assay: Cytotoxicity in myoblasts; conditions: read-out: Myoblast CC50; individual determinations (S1 File)
[8] = in vivo; conditions: zebrafish
Method: as §3

[9] = Stimulated PBMC (CC50), PHA/IL-2 stimulated, 72 hours, average ± SD
[10] = Stimulated PBMC CC50, AVERAGE (S1 File)
[11] = AVERAGE (S1 File), unit not given for EC5X
[12] = individual experiments (S1 File)
[13] = individual experiments (S1 File), unit not printed for EC5X (EC2X of the sheet in uM)
[14] = maximum readthrough above background, average ± SD

Compound | CC50 [2] | CC50 [3] | fLuc-190-NS EC2X ([5]; AVERAGE (S1 File)) [µM] | fLuc-190-NS MaxFold ([5]; AVERAGE (S1 File)) | fLuc-190-NS EC5X [5, 11] | fLuc-190-NS EC2X ([5]; cell-free, average ± SD) [µM] | fLuc-190-NS MaxFold ([5]; cell-free, average ± SD) [fold] | fLuc-190-NS EC2X [5, 12] | fLuc-190-NS MaxFold [5, 12] | fLuc-190-NS EC5X [5, 13] | tGFP-542X EC2X ([6]; AVERAGE (S1 File)) [µM] | tGFP-542X Maxfold ([6]; AVERAGE (S1 File)) | tGFP-542X EC5X [6, 11] | tGFP-542X EC2X [6, 12] | tGFP-542X Maxfold [6, 12] | tGFP-542X EC5X [6, 13] | tGFP-542X Maxfold [6, 14] [fold] | also measured
CN[C@@H]1[C@@H](O)[C@@H](O[C@@H]2[C@@H](O)[C@H](O[C@H]3O[C@H](CO)[C@@H](O)[C@H](O)[C@H]3N)[C@@H](N)C[C@H]2N)OC[C@]1(C)O (stereo in doubt) [Gentamicin X2, gentamicin X2] | 8.7 µM and 19 µM | 2590 µM and 2630 µM and 2940 µM | 0.0288 | 195.3 | 0.0696 | 0.029 ± 0.009 | 195 ± 18 | 0.0300 µM and 0.0373 µM and 0.0192 µM | 193.99 and 177.60 and 214.25 | 0.0904 and 0.0449 and 0.0734 | 18.6 | 135.0 | 101.5 | 18.5 µM and 10.25 µM and 10.65 µM and 11.55 µM and 13.08 µM and 5.70 µM and 9.22 µM and 17.7 µM and 40.0 µM and 49.3 µM | 235 and 85 | 52 and 120 and 133 | 135 ± 87 | CC50 at 24 h ([1]; Neuromast (CC50), 24 hours exposure, maximum of two measurements): 14 ± 7 µM; CC50 at 24 h ([1]; Neuromast CC50, AVERAGE (S1 File)): 13.9 µM; safety window (average CC50 / average EC2X) ([3]; PBMCs, compared with NB84, NB124 or G418, 95% confidence limits): statistically better safety window; CC50 at 72 h [4, 9]: 2970 ± 533 µM; CC50 at 72 h [4, 10]: 2970 µM; CC50 at 72 h ([4]; Stimulated PBMC CC50, individual determinations (S1 File)): 3740 µM; CC50 [7]: 614 µM and 402 µM and 481 µM and 324 µM and 1880 µM and 1300 µM
CN[C@@H]1[C@@H](O)[C@@H](O[C@@H]2[C@@H](O)[C@H](O[C@H]3O[C@H]([C@@H](C)O)[C@@H](O)[C@H](O)[C@H]3N)[C@@H](N)C[C@H]2N)OC[C@]1(C)O [G418, reference compound] | 3.6 µM | 270 µM and 289 µM and 294 µM and 295 µM and 372 µM and 440 µM and 458 µM and 473 µM and 841 µM and 853 µM and 914 µM and 1060 µM | 0.0064 | 53.0 | 0.0260 | 0.0064 ± 0.0002 | 53 ± 2 | 0.0067 µM and 0.0063 µM | 51.05 and 54.30 and 53.65 | 0.0261 and 0.0252 and 0.0267 | 9.0 | 318.3 | 24.8 | 8 µM and 15 µM and 5 µM | 373 and 420 and 226 and 255 | 22 and 18 and 33 and 27 | 318 ± 93 | CC50 [4, 9]: 546 ± 286 µM; CC50 [4, 10]: 546 µM; CC50 ([8]; Neuromast (CC50), zebrafish embryos 5 dpf, 24 hours exposure, maximum of two measurements): 2.8 ± 1.2 µM; CC50 ([8]; Neuromast CC50, individual determinations (S1 File)): 1.9 µM; tGFP-542X EC2X ([6]; 293H cells, 24 hours, average ± SD): 9 ± 4 µM
